{"source": "patent US6869622B2", "about": "“Composition for improving sleep quality and efficiency, and methods of preparing and using the composition” (Ancile Pharmaceuticals, Inc., priority 1999, dated 2005)", "origin": "cited, not measured here", "key": {"[1]": {"system": "AMES assay and the SOS-chromo-test"}, "mice [2]": {"system": "mice", "conditions": "26 mg/kg, IP or PO"}, "[3]": {"system": "enzyme system which catalyses breakdown of GABA in the brain", "conditions": "1 mmole/liter"}, "mice [4]": {"system": "mice", "conditions": "12.5 and 25 mg/kg, IP in mice"}, "mouse": {"system": "mouse", "conditions": "50 and 100 mg/kg, IP"}, "mice [5]": {"system": "mice"}}, "note": "Where two headings read alike, the source gives them in different places."}
{"compound": "CC(C)CC(=O)OCc1cocc2c(C=O)ccc1-2", "note": "[homobaldrinal]", "values": [{"measurement": "Genotoxicity in vitro", "setting": "[1]", "result": "direct mutagenic effects"}]}
{"compound": "CC(=O)OCc1cocc2c(C=O)ccc1-2", "note": "[baldrinal]", "values": [{"measurement": "Metabolic degradation of 14C-methacetin", "setting": "mice [2]", "result": "distinctly inhibited"}, {"measurement": "Genotoxicity in vitro", "setting": "[1]; AMES assay and SOS-chromo-test", "result": "direct mutagenic effects"}]}
{"compound": "CC(=O)O[C@@H]1CC(C)=C2[C@H]1[C@H](C)CC[C@H]2/C=C(\\C)C(=O)O", "note": "[acetoxyvalerenic acid, Acetoxyvalerenic Acid]", "values": [{"measurement": "Inhibition of enzyme system which catalyses breakdown of GABA", "setting": "[3]", "result": 38, "unit": "%"}]}
{"compound": "CC1=C2[C@H](/C=C(\\C)C(=O)O)CC[C@@H](C)[C@H]2CC1", "note": "[valerenic acid, Valerenic Acid]", "values": [{"measurement": "Picrotoxin induced convulsions", "setting": "mice [4]", "result": "antagonized"}, {"measurement": "Pentobarbital induced sleeping time", "setting": "mouse", "result": "potentiate"}, {"measurement": "Behavioural effects", "setting": "mice [5]; 100 mg/kg intraperitoneally, mice", "result": "decrease in motor activity, a decrease in respiratory rate, absence of righting reflex, ataxia, a decrease of abdominal muscle tone, and a decrease in rotarod performance"}, {"measurement": "Performance on rotarod and traction tests", "setting": "mice [5]; 100 mg/kg, IP", "result": "statistical significance"}, {"measurement": "Inhibition of enzyme system which catalyses breakdown of GABA", "setting": "[3]", "result": 20, "unit": "%"}]}
